Measurements published in US6034246A, “2-arylbenzazole compounds” (Cancer Research Campaign Technology Limited, priority 1995, dated 2000).
Converted amounts (≈) assume the structure as drawn. Where two headings read alike, the source gives them in different places.

What was measured:
[1] = aqueous solubility; format: physicochemical; settings: water
[2] = estimation of toxicity in tumor-bearing nude mice (body weight, blood cells, survival); format: in vivo, mouse; settings: for BWC (body weight change): BO
Experimental: (§1) In one typical set of experiments, four human breast carcinomas xenotransplanted into female Ncr: nu/nu (Taconic, Germantown, U.S.A.) or male Bom: NMRI-nu/nu mice (Bomholtgaard, Ry, Denmark) were used for the evaluation of antitumor activity. Mice weighing 20-25 g at the start of experiments were held under sterile conditions at 24-26° C., 50% relative humidity and 12 hours light-dark rhythm in laminar flow shelves. The animals received autoclaved food and bedding; the drinking water was filtered and acidified (pH4.0).
(§2) The following breast carcinoma cell lines were used: BO; MCF-7 (NCI, U.S.A.); MT-1 and MT-3. The tumors BO and MCF-7 are ER^+ models: the carcinomas MT-1 and MT-3 are ER^- ones. Tumors were transplanted subcutaneously (s.c.) as pieces (2×2 mm) into the left flank of 5-8 nude mice/experimental group. Drug treatment was initiated when the tumors reached a diameter of 4-5 mm. Compounds were solubized with Tween 80 (maximum 10% of final volume) and suspended in saline. Suspensions were preparted freshly for each drug administration and injected in a volume of 0.2 mL/20 g body weight employing a once-weekly schedule (x3). Tumor size was measured twice weekly with a caliper. Median tumor volume/group was related to the first treatment day and expressed as Relative Tumor Volume (RTV). For the estimation of toxicity, body weight was determined twice weekly and the mean percentage body weight change (BCC) was calculated. In one experiment blood was obtained from the retroorbital venous plexus of mice and blood cells were determined with a Coulter counter (Model T41).

[3] = tested on: breast carcinoma BO; assay: in vivo antitumor test, human breast carcinoma BO xenotransplanted in nude mice; settings: for Relative tumor volume (T/C %) / evaluation: BO
Experimental: as §1
as §2, with “T41). […]” for “T41).”

[4] = tested on: L23/P; assay: in vitro inhibition of growth of human lung cancer cell line L23/P (Table 1); format: cell-based
Description: (§3) Tables 1 to 4 at the end of the present description show in vitro test results obtained in various sets of experiments for the cytotoxic activity of several of the benzazole compounds concerned, including also for reference results for the compound CJM 126 and comparative results for compound DF129, when tested against a range of tumor cell lines which includes ovarian, lung and certain colon and renal cancer cells from the National Cancer Institute (USA) collection. As usual the results are expressed in terms of IS50 values (concentration or dosage required to reduce cell growth or proliferation by 50%) calculated from dose-effect curves plotted for cultures of the cells in question.
(§4) In carrying out the in vitro studies, the cytotoxicity assays may be carried out by a method corresponding substantially to the following example:
(§5) Cells were maintained in a continuous logarithmic culture in Dublecco's medium supplemented with 10% fetal calf serum and penicillin (100 IU/ml) and streptomycin ([…]). The cells were mildly trypsinized for passage and for use in assays. On day zero, 100 μl of trypsinized tumor cells (1×10^4 /ml) were plated in the wells of 96-well flat-bottom microtiter plates. The plates were incubated for 2 days at 37° C. and 5% CO2 in air to allow the cells to adhere and resume exponential growth prior to the addition of drugs.
(§6) On day two 50 μl of the highest drug concentration was added to the wells of column 12 and from there serially diluted 3-fold to column 1 by serial transfer of 50 μl using an 8-channel micropipette. The final volume of column 1 was adjusted to 100 μl. No additions were made to the wells of rows A and B, which served as controls. The plates were further incubated for 5 days at 37° C. and 5% CO2 in air. Each compound was tested in duplicate.
(§7) On day 7 the test was terminated by the addition of 100 μl saline containing 0.002% w/v propidium iodide (Sigma), 0.3% drawing ink (Staedtler "Marsmatic 745"--Trade Mark) and 0.5% Triton X-100. The plates were kept at 4° C. overnight before reading on an inverted microscope equipped with an automated scanning stage. Fluorescence intensity was measured in arbitrary units by a photomultiplier. An HP-87 computer controlled the movement of the stage and also collected and processed the data from the multiplier.
(§8) For each compound tested a dose-response curve was obtained and the IC50 value (the drug concentration at 50% inhibition of cell growth) was calculated.

[5] = tested on: MOR/R; assay: in vitro inhibition of growth of human lung cancer cell line MOR/R (Table 1); format: cell-based; settings: MOR/R (multidrug resistant line)
Description: as §3, §4, §5, §6, §7, §8

[6] = tested on: L23/R; assay: in vitro inhibition of growth of human lung cancer cell line L23/R (Table 1); format: cell-based
Description: as §3, §4, §5, §6, §7, §8

[7] = tested on: LX4; assay: in vitro inhibition of growth of human lung cancer cell line LX4 (Table 1); format: cell-based
Description: as §3, §4, §5, §6, §7, §8

[8] = tested on: H69/P; assay: in vitro inhibition of growth of human lung cancer cell line H69/P (Table 1); format: cell-based
Description: as §3, §4, §5, §6, §7, §8

[9] = tested on: MOR/P; assay: in vitro inhibition of growth of human lung cancer cell line MOR/P (Table 1); format: cell-based; settings: MOR/P (parental line)
Description: as §3, §4, §5, §6, §7, §8

[10] = tested on: lung cancer cell lines; assay: in vitro inhibition of lung cancer cell lines; format: cell-based, human; settings: words, Table 1
Description: as §3
(§9) In carrying out the in vitro studies, the cytotoxicity assays may be carried out by a method corresponding substantially to the following example: […]
as §7, with “An HP-87 computer controlled the movement of the stage and also collected and processed the data from the multiplier.” left out

[11] = tested on: human breast cancer cell lines; settings: words, prior PCT compound; cited from earlier work
[12] = tested on: CH1; assay: in vitro activity against human ovarian cell line CH1 (Table 2); format: cell-based
Description: (§10) As usual the results are expressed in terms of IS50 values (concentration or dosage required to reduce cell growth or proliferation by 50%) calculated from dose-effect curves plotted for cultures of the cells in question.
as §4, §5, §6
(§11) The plates were kept at 4° C. overnight before reading on an inverted microscope equipped with an automated scanning stage. Fluorescence intensity was measured in arbitrary units by a photomultiplier. An HP-87 computer controlled the movement of the stage and also collected and processed the data from the multiplier.

[13] = tested on: A2780; assay: in vitro activity against human ovarian cell line A2780 (Table 2); format: cell-based; settings: A2780 (parental line)
Description: as §10, §4, §5, §6, §11

[14] = tested on: A2780-cisR; assay: in vitro activity against human ovarian cell line A2780-cisR (Table 2); format: cell-based; settings: A2780-cisR (platinum-resistant)
Description: as §10, §4, §5, §6, §11

[15] = tested on: CH1-cisR; assay: in vitro activity against human ovarian cell line CH1-cisR (Table 2); format: cell-based
Description: as §10, §4, §5, §6, §11

[16] = tested on: ER-tumors MT-1 and MT-3; settings: words, background statement; cited from earlier work
[17] = tested on: human breast cancer cell lines; assay: in vitro inhibition of human breast cancer cell lines; format: cell-based; settings: words, Table 4
Description: as §3, §4, §5, §6, §7, §8

[18] = tested on: MOR/CPR; assay: in vitro inhibition of growth of human lung cancer cell line MOR/CPR (Table 1); format: cell-based; settings: Homo sapiens; MOR/CPR (cisplatin resistant line)
Description: as §3, §4, §5, §6, §7, §8

[19] = tested on: ovarian cancer cell lines; assay: in vitro inhibition of ovarian cancer cell lines; format: cell-based, human; settings: words, Table 2
Description: as §3, §9
as §7, with “An HP-87 computer controlled the movement of the stage and also collected and processed the data from the multiplier.” left out

[20] = tested on: MDA 468; assay: in vitro inhibitory activity against human breast tumour cell line MDA 468 (Table 4); format: cell-based; settings: initial seeding density 2.5 × 10^2 cells/well
Description: as §3, §4, §5, §6, §7, §8
(§12) *Initial seeding density 2.5 × 10^2 cells/well

[21] = tested on: MCF-7B; assay: in vitro inhibitory activity against human breast tumour cell line MCF-7B (Table 4); format: cell-based; settings: initial seeding density 2.5 × 10^2 cells/well
Description: as §3, §4, §5
as §6, with “The plates were further incubated for 5 days at 37° C. and 5% CO2 in air. Each compound was tested in duplicate.” left out
as §7, with “An HP-87 computer controlled the movement of the stage and also collected and processed the data from the multiplier.” left out

[22] = tested on: L88; assay: in vitro inhibition of growth of human lung cancer cell line L88 (Table 1); format: cell-based
Description: as §3, §4, §5
as §6, with “The plates were further incubated for 5 days at 37° C. and 5% CO2 in air. Each compound was tested in duplicate.” left out
as §7, with “An HP-87 computer controlled the movement of the stage and also collected and processed the data from the multiplier.” left out

[23] = tested on: MCF-7wt; assay: in vitro inhibitory activity against human breast tumour cell line MCF-7wt (Table 4); format: cell-based; settings: initial seeding density 2.5 × 10^2 cells/well
Description: as §3, §4, §5, §6, §7, §8, §12

[24] = qd 27, 34, 41, 20 mg/Kg/inj. i.p.
[25] = qd 27, 34, 41, 200 mg/Kg/inj. i.p. (Table 5)
[26] = qd 27, 34, 41, 1 mg/Kg/inj. i.p.
[27] = qd 27, 34, 41, 10 mg/Kg/inj. i.p.
[28] = qd 27, 34, 41, 100 mg/Kg/inj. i.p.

Structure (SMILES): O=S(=O)([O-])Nc1ccc(-c2nc3ccccc3s2)cc1.[Na+]
- solubility [1]: ~10000 µg/mL

Structure (SMILES): Nc1cccc(-c2nc3ccccc3s2)c1 [2-(3-Aminophenyl)-benzothiazole]
- BWC (body weight change) ([2]; qd 27, 34, 41, 2 mg/Kg/inj. i.p.): 2%
- BWC (body weight change) [2, 24]: -3%
- BWC (body weight change) [2, 25]: -6%
- Relative tumor volume (T/C %) ([3]; qd 27, 34, 41, 2 mg/Kg/inj. i.p., not marked significant): 78%
- evaluation [3, 24]: + (T/C % = 36-50%)
- Relative tumor volume (T/C %) ([3]; qd 27, 34, 41, 20 mg/Kg/inj. i.p., * significant versus controls (p < 0.05)): 48%
- evaluation [3, 25]: ++ (T/C = 21-35%)
- Relative tumor volume (T/C %) ([3]; qd 27, 34, 41, 200 mg/Kg/inj. i.p. (Table 5), * significant versus controls (p < 0.05)): 32%
- inhibitory effects against the breast carcinoma BO ([3]; words): elicited inhibitory effects

Structure (SMILES): Nc1ccc(-c2nc3ccccc3s2)cc1 [CJM126, 2-(4'-Aminophenyl)benzothiazole]
- IC50 [4]: > 10000 nM
- IC50 [5]: > 10000 nM
- IC50 [6]: > 10000 nM
- IC50 [7]: > 10000 nM
- BWC (body weight change) [2, 26]: -5%
- BWC (body weight change) [2, 27]: -4%
- BWC (body weight change) [2, 28]: -7%
- influence on body weight, dose dependence ([2]; words): relatively independent of dose
- solubility [1]: 3.8 µg/mL (≈ 16.8 µM)
- IC50 [8]: > 10000 nM
- evaluation [3, 26]: + (T/C % = 36-50%)
- Relative tumor volume (T/C %) ([3]; qd 27, 34, 41, 1 mg/Kg/inj. i.p., * significant versus controls (p < 0.05)): 41%
- evaluation [3, 27]: (+) (T/C % ≥ 51%)
- Relative tumor volume (T/C %) ([3]; qd 27, 34, 41, 10 mg/Kg/inj. i.p., * significant versus controls (p < 0.05)): 52%
- evaluation [3, 28]: (+) (T/C % ≥ 51%)
- Relative tumor volume (T/C %) ([3]; qd 27, 34, 41, 100 mg/Kg/inj. i.p., * significant versus controls (p < 0.05)): 52%
- influence on tumor growth, dose dependence ([3]; words): relatively independent of dose
- inhibitory effects against the breast carcinoma BO ([3]; words): elicited inhibitory effects
- IC50 [9]: > 10000 nM
- activity against lung cancer cell lines [10]: not very sensitive
- specific inhibitory activity in respect of certain human breast cancer cell lines [11]: remarkably high specific inhibitory activity

Structure (SMILES): N.N.[Cl][Pt][Cl] [Cisplatin]
- IC50 [12]: 100 nM
- IC50 [13]: 330 nM
- IC50 [14]: 5200 nM
- IC50 [15]: 700 nM
- responsiveness of MT-1 and MT-3 tumors to drug [16]: only modestly sensitive

Structure (SMILES): O=C(CCl)Nc1ccc(-c2nc3ccccc3s2)cc1 [DF180, 2-(4'-Chloroacetamidophenyl)benzothiazole]
- IC50 [4]: 1500 nM
- IC50 [5]: 6000 nM
- IC50 [6]: 1500 nM
- IC50 [7]: 3000 nM
- IC50 ([12]; Homo sapiens): 1600 nM
- IC50 ([13]; Homo sapiens): 1250 nM
- IC50 ([14]; Homo sapiens, A2780cisR): 1600 nM
- IC50 ([15]; Homo sapiens, CH1cisR): 2600 nM
- inhibitory activity in respect of breast cancer cell lines [17]: useful degree of inhibitory activity
- IC50 [8]: 3000 nM
- IC50 [18]: 10000 nM
- IC50 [9]: 6000 nM
- activity against two cisplatin resistant cell lines compared with the parental line [19]: substantially equiactive
- activity in respect of the ovarian cancer cell lines [19]: most active by far
- IC50 [20]: 40 nM
- IC50 [21]: 500 nM
- IC50 [22]: 6000 nM
- IC50 [23]: 4 nM

Structure (SMILES): Nc1ccc(-c2nc3ccccc3s2)cc1Br [DF209, 2-(4'-amino-3'-bromophenyl)benzothiazole]
- potency against breast cancer cells relative to CJM 126 [17]: more potent than even the compound CJM 126
- IC50 [20]: < 1 nM
- IC50 [21]: 1 nM
- IC50 [23]: < 1 nM

Structure (SMILES): CCCCCCCCCCCCCCCCOP(=O)([O-])OCC[N+](C)(C)C [hexadecylphosphocoline]
- responsiveness of MT-1 and MT-3 tumors to drug [16]: exquisitively sensitive

Structure (SMILES): CN(Cc1cnc2nc(N)nc(N)c2n1)c1ccc(C(=O)N[C@@H](CCC(=O)O)C(=O)O)cc1 [methotrexate]
- responsiveness of MT-1 and MT-3 tumors to drug [16]: completely unresponsive

Structure (SMILES): CC[C@]1(O)C[C@H]2CN(CCc3c([nH]c4ccccc34)[C@@](C(=O)OC)(c3cc4c(cc3OC)N(C=O)[C@H]3[C@@](O)(C(=O)OC)[C@H](OC(C)=O)[C@]5(CC)C=CCN6CC[C@]43[C@@H]65)C2)C1 [vincristine]
- responsiveness of MT-1 and MT-3 tumors to drug [16]: completely unresponsive
